Positions of bridges follow the written chain, without caps; N, C: chain ends. Non-standard residues stand in square brackets, D forms with d. Residues, ends and D or L forms follow the SMILES beside them. pGlu = O=C1CC[C@@H](C(=O)O)N1
Tests used:
[1] = target: α7^EM nAChR (Homo sapiens, UniProt P36544); assay: cell-based; type: cell-based
[2] = target: hα7 nAChR (Homo sapiens, UniProt P36544); assay: cell-based
[3] = in vitro; details: human, serum
[4] = target: α7^EM nAChR E184Q (Homo sapiens, UniProt P36544, E184Q, form not given); type: cell-based; details: read-out: IC50 at α7^EM nAChR mutant E184Q
Sequence of α7^EM nAChR E184Q (P36544 23-502 E184Q, form open): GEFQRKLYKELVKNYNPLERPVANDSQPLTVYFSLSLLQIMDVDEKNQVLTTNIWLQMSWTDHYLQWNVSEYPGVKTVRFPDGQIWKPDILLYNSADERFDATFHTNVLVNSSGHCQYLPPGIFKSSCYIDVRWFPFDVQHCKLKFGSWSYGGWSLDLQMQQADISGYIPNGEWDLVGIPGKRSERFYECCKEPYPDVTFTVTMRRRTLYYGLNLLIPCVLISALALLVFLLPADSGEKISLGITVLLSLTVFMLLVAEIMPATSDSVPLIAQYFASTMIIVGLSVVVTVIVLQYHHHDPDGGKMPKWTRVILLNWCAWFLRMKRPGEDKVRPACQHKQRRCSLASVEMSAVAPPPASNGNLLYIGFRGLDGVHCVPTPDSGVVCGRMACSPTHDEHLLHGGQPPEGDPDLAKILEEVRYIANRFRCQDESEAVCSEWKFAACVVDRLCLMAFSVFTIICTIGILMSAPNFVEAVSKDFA

[5] = target: α7^EM nAChR S56A (Homo sapiens, UniProt P36544, S56A, form not given); type: cell-based; details: read-out: IC50 at α7^EM nAChR mutant S56A
Sequence of α7^EM nAChR S56A (P36544 23-502 S56A, form open): as the sequence (P36544 23-502 E184Q, form open) above, with S34A, Q162E counted along it

[6] = target: α7^EM nAChR Q139E (Homo sapiens, UniProt P36544, Q139E, form not given); type: cell-based; details: read-out: IC50 at α7^EM nAChR mutant Q139E
Sequence of α7^EM nAChR Q139E (P36544 23-502 Q139E, form open): as the sequence (P36544 23-502 E184Q, form open) above, with Q117E, Q162E counted along it

[7] = target: α7^EM nAChR R208A (Homo sapiens, UniProt P36544, R208A, form not given); type: cell-based; details: read-out: IC50 at α7^EM nAChR mutant R208A
Sequence of α7^EM nAChR R208A (P36544 23-502 R208A, form open): as the sequence (P36544 23-502 E184Q, form open) above, with Q162E, R186A counted along it

Sequence of hα7 nAChR (P36544 23-502): as the sequence (P36544 23-502 E184Q, form open) above, with Q162E counted along it
Sequence of α7^EM nAChR (P36544 23-233 limits assumed): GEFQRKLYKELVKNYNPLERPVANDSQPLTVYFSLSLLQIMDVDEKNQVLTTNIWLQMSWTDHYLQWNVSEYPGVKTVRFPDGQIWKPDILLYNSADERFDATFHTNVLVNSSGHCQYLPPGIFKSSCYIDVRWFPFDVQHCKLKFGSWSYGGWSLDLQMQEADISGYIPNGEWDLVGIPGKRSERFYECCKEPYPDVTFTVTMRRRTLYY

With `N=C(N)NCCC[C@@H]1NC(=O)[C@@H](NC(=O)CNC(=O)[C@@H]2CCCN2C(=O)[C@@H](N)CCCNC(=N)N)CSSC[C@@H](C(N)=O)NC(=O)[C@H](Cc2c[nH]c3ccccc23)NC(=O)[C@H](CCCNC(=N)N)NC(=O)[C@H](CCCNC(=N)N)NC(=O)[C@H](Cc2c[nH]c3ccccc23)NC(=O)[C@H](Cc2c[nH]c3ccccc23)NC1=O` [[Q1R, S8R]SS1] (H-RPGCRWWRRWC-NH2; disulfide 4-11) the IC50 [1] was 136 ± 27.8 nM and the “increase in potency versus [S8R]SS1 at α7^EM nAChR” value [1] was 4.8 fold.
With `N=C(N)NCCC[C@@H]1NC(=O)[C@@H](NC(=O)CNC(=O)[C@@H]2CCCN2C(=O)[C@@H](N)CCC(N)=O)CSSC[C@@H](C(N)=O)NC(=O)[C@H](Cc2c[nH]c3ccccc23)NC(=O)[C@H](CCCNC(=N)N)NC(=O)[C@H](CO)NC(=O)[C@H](CCCNC(=N)N)NC(=O)[C@H](Cc2c[nH]c3ccccc23)NC1=O` [[W7R]SS1] (H-QPGCRWRSRWC-NH2; disulfide 4-11) the “potency at hα7 nAChR relative to parent peptide (in words)” value [2] was “no significant differences”.
In the case of `N=C(N)NCCC[C@@H]1NC(=O)[C@@H](NC(=O)CNC(=O)[C@@H]2CCCN2C(=O)[C@@H](N)CCCNC(=N)N)CSSC[C@@H](C(N)=O)NC(=O)[C@H](Cc2c[nH]c3ccccc23)NC(=O)[C@H](CCCNC(=N)N)NC(=O)[C@H](CO)NC(=O)[C@H](Cc2c[nH]c3ccccc23)NC(=O)[C@H](Cc2c[nH]c3ccccc23)NC1=O` [[Q1R]SS1] (H-RPGCRWWSRWC-NH2; disulfide 4-11), the “potency at hα7 nAChR relative to parent peptide (in words)” value [2] is reported as “no significant differences”.
For `N=C(N)NCCC[C@@H]1NC(=O)[C@@H](NC(=O)CNC(=O)[C@@H]2CCCN2C(=O)[C@@H]2CCC(=O)N2)CSSC[C@@H](C(N)=O)NC(=O)[C@H](Cc2c[nH]c3ccccc23)NC(=O)[C@H](CCCNC(=N)N)NC(=O)[C@H](CCCNC(=N)N)NC(=O)[C@H](Cc2c[nH]c3ccccc23)NC(=O)[C@H](Cc2c[nH]c3ccccc23)NC1=O` [[Q1Pyr, S8R]SS1] ([pGlu]PGCRWWRRWC-NH2; disulfide 4-11), the IC50 [1] was 1390 ± 260 nM.
With `N=C(N)NCCC[C@@H]1NC(=O)[C@@H](NC(=O)CNC(=O)[C@@H]2CCCN2C(=O)[C@@H](N)CCC(N)=O)CSSC[C@@H](C(N)=O)NC(=O)[C@H](Cc2c[nH]c3ccccc23)NC(=O)[C@H](CCCNC(=N)N)NC(=O)[C@H](CCCNC(=N)N)NC(=O)[C@H](Cc2c[nH]c3ccccc23)NC(=O)[C@H](CCCNC(=N)N)NC1=O` [[W6R, S8R]SS1] (H-QPGCRRWRRWC-NH2; disulfide 4-11) the “potency of [S8R]SS1 analogues at hα7 nAChR relative to [S8R]SS1 (in words)” value ([2]; n = 8-10) was “maintained potency”.
For `N=C(N)NCCC[C@@H]1NC(=O)[C@@H](NC(=O)CNC(=O)[C@@H]2CCCN2C(=O)[C@@H](N)CCC(N)=O)CSSC[C@@H](C(N)=O)NC(=O)[C@H](Cc2c[nH]c3ccccc23)NC(=O)[C@H](CCCNC(=N)N)NC(=O)[C@H](CO)NC(=O)[C@H](Cc2c[nH]c3ccccc23)NC(=O)[C@H](CCCNC(=N)N)NC1=O` [[W6R]SS1] (H-QPGCRRWSRWC-NH2; disulfide 4-11), the “potency at hα7 nAChR relative to parent peptide (in words)” value [2] was “completely lost potency”.
With `N=C(N)NCCC[C@@H]1NC(=O)[C@@H](NC(=O)CNC(=O)[C@@H]2CCCN2C(=O)[C@@H](N)CCC(=O)O)CSSC[C@@H](C(N)=O)NC(=O)[C@H](Cc2c[nH]c3ccccc23)NC(=O)[C@H](CCCNC(=N)N)NC(=O)[C@H](CCCNC(=N)N)NC(=O)[C@H](Cc2c[nH]c3ccccc23)NC(=O)[C@H](Cc2c[nH]c3ccccc23)NC1=O` [[Q1E, S8R]SS1] (H-EPGCRWWRRWC-NH2; disulfide 4-11) the IC50 [1] was 364 ± 103 nM and the “increase in potency versus [S8R]SS1 at α7^EM nAChR” value [1] was 1.8 fold.
With `N=C(N)NCCC[C@@H]1NC(=O)[C@@H](NC(=O)CN)CSSC[C@@H](C(N)=O)NC(=O)[C@H](Cc2c[nH]c3ccccc23)NC(=O)[C@H](CCCNC(=N)N)NC(=O)[C@H](CCCNC(=N)N)NC(=O)[C@H](Cc2c[nH]c3ccccc23)NC(=O)[C@H](Cc2c[nH]c3ccccc23)NC1=O` [[ΔQP, S8R]SS1] (H-GCRWWRRWC-NH2; disulfide 2-9) the IC50 [2] was 49.2 nM, the “increase in potency compared to SS1” value [2] was about 29 fold and the remaining at 24 h [3] was 14%.
In the case of `N=C(N)NCCC[C@@H]1NC(=O)[C@@H](NC(=O)CNC(=O)[C@H](CCCNC(=N)N)NC(=O)[C@@H](N)CCC(N)=O)CSSC[C@@H](C(N)=O)NC(=O)[C@H](Cc2c[nH]c3ccccc23)NC(=O)[C@H](CCCNC(=N)N)NC(=O)[C@H](CO)NC(=O)[C@H](Cc2c[nH]c3ccccc23)NC(=O)[C@H](Cc2c[nH]c3ccccc23)NC1=O` [[P2R]SS1] (H-QRGCRWWSRWC-NH2; disulfide 4-11), the “potency at hα7 nAChR relative to parent peptide (in words)” value [2] is reported as “no significant differences”.
With `N=C(N)NCCC[C@@H]1NC(=O)[C@@H](NC(=O)CNC(=O)[C@@H]2CCCN2C(=O)[C@@H](N)CCC(N)=O)CSSC[C@@H](C(N)=O)NC(=O)[C@H](Cc2c[nH]c3ccccc23)NC(=O)[C@H](CCCNC(=N)N)NC(=O)[C@H](CCCNC(=N)N)NC(=O)[C@H](Cc2c[nH]c3ccccc23)NC(=O)[C@H](Cc2c[nH]c3ccccc23)NC1=O` [[S8R]SS1] (H-QPGCRWWRRWC-NH2; disulfide 4-11) the IC50 [4] was 555 ± 99.9 nM, the IC50 [5] was 234 ± 36.1 nM and the IC50 [6] was 852 ± 66.3 nM. The IC50 [1] was 659 ± 92.9 nM and the IC50 [7] was 1930 ± 196 nM.
For `N=C(N)NCCC[C@@H]1NC(=O)[C@H](CO)NC(=O)[C@H](Cc2c[nH]c3ccccc23)NC(=O)[C@H](Cc2c[nH]c3ccccc23)NC(=O)[C@H](CCCNC(=N)N)NC(=O)[C@@H](NC(=O)[C@H](CCCNC(=N)N)NC(=O)[C@@H]2CCCN2C(=O)[C@@H](N)CCC(N)=O)CSSC[C@@H](C(N)=O)NC(=O)[C@H](Cc2c[nH]c3ccccc23)NC1=O` [[G3R]SS1] (H-QPRCRWWSRWC-NH2; disulfide 4-11), the “potency at hα7 nAChR relative to parent peptide (in words)” value [2] was “no significant differences”.

Source: publication PMC13366377 (Acta Pharmaceutica Sinica. B, 2025)
